For one test, the system named is ERK, RSK. Kind of test: Western blot of ERK and RSK activation in LNCaP cells. The test is classed as cell-based, human. Particulars: compound 1 μM; for androgen-triggered ERK and RSK activation: 10 nM R1881, 10 min; for ERK and RSK phosphorylation/activation when used alone: no R1881. From the text:
All performed as reported. The mouse monoclonal anti-AR (441; Santa Cruz) antibody was used in Co-Ip or WB approaches. TRPM8 was detected using the rabbit polyclonal anti-TRPM8 (NBP1-97311; Novus Biological). […] The rabbit polyclonal anti-ERK (C-14; Santa Cruz), antibody was used to detect total ERK. FAK and P-Tyr397 FAK were detected using the mouse monoclonal anti-FAK (Clone 77/610077 BD Transduction Laboratories) or anti P-Tyr397 FAK (Clone 14/611722; BD Transduction Laboratories) antibodies, respectively. P-Tyr118 paxillin and total paxillin were detected using the rabbit polyclonal anti-P-Y118 (#2541, Cell Signaling) or the mouse monoclonal anti-paxillin (clone 349; BD Biosciences) antibodies, respectively. […] P-Tyr 416 Src and Src were detected using the rabbit monoclonal anti P-Tyr 416 Src (#6943; Cell Signaling) or the mouse monoclonal anti Src (Calbiochem) antibodies, respectively. ERα and ERβ were detected using the rabbit polyclonal anti-ERα (543; Santa Cruz) or anti-ERβ (Upstate Biotechnology, U.S.A.) antibodies. Cyclin D1, p27 and Cdk4 were stained using the mouse monoclonal anti-cyclin D1 (clone AM29; from Zymed Laboratories Inc.), the rabbit polyclonal anti-p27 (C-19; Santa Cruz) or anti Cdk-4 (c-22; Santa Cruz) antibodies, respectively. The mouse monoclonal anti-tubulin (Sigma-Aldrich) antibody was used to detect tubulin. The ECL system (GE Healthcare) was employed to reveal immune-reactive proteins. Densitometric analysis of WB was performed by using Image J Software (https://imagej.nih.gov/ij).
Background: In western blotting, separated proteins are transferred to a membrane and probed.

Test [1] relates to 22Rv1 cells. Kind of test: Transmigration assay, 22Rv1 cells. The test is classed as cell-based, human. The note with it: 10 nM R1881, compound 1 μM; compared with LNCaP. As to the method: (§1) In wound scratch analysis, 1.8 × 10^5 cells were seeded in a 24-well plate and made quiescent. Cells were then wounded using 10 µl sterile pipette tips and washed with PBS. They were left un-stimulated or stimulated for the indicated times, in the absence or presence of the selected compounds. To avoid cell proliferation, cytosine arabinoside (Sigma-Aldrich) at 50 μM (final concentration) was included in the cell medium. Different fields were analysed by contrast-phase microscopy, as below described in this section. Migration and invasion assays were done as reported. In migration assay, we used 3 × 10^4 cells in collagen pre-coated Boyden’s chambers with 8 μm polycarbonate membrane (Falcon). The indicated stimuli were added to the upper and the lower chambers. […] Migrating and invading cells were scored by fluorescence microscopy, as below described in this section.
(§2) In wound scratch assay, different fields were analysed using DMIRB inverted microscope (Leica) equipped with N-Plan 10 × objective (Leica), as reported. LNCaP organoids were analysed using the same microscope equipped with C-Plan 40 × or HCX PL Fluotar 63 × objectives (Leica). […] The relative organoid size was calculated using the same software and expressed as a fold increase over the basal organoid size (measured at 3th day). The wound gap was calculated using Image J Software and expressed as % of the decrease in the wound area. […]

Test [2] has as its system 22Rv1 cells. Kind of test: Invasion assay, 22Rv1 cells. The test is classed as cell-based, human. Particulars: 10 nM R1881, compound 1 μM; compared with LNCaP. Here is the method: as §1, §2
Test [3] concerns 22Rv1 cells. Kind of test: DNA synthesis (BrdU incorporation) in 22Rv1 cells. Type of test: cell-based, human. Particulars: 10 nM R1881, 18 h, compound 1 μM. Here is the method:
(§3) Cells on coverslips were pulsed in vivo with BrdU (Sigma-Aldrich; at 100 μM, final concentration) and left unchallenged or challenged with 10 nM R1881 for 18 h, in the absence or presence of the indicated compounds. Cells were fixed, permeabilized, washed and the BrdU incorporation was analysed as reported. Nuclei were stained with Hoechst and cells on coverslips were scored by IF microscopy, using a DMLB Leica (Leica) fluorescent microscope, equipped with HCX PL Apo 63 × oil objective. Different fields from each coverslip were analyzed and BrdU incorporation was calculated by the formula: percentage of BrdU-positive cells = (No. of BrdU-positive cells/No. of total cells) × 100. Data in the graphs derive from at least 1000 scored cells for each coverslip. Representative images were captured using DC480 camera (Leica) and acquired using Leica Suite software. They are representative of three different experiments.
(In general: Uptake of a labelled nucleoside into DNA is a usual measure of proliferation.)

A further test has as its system PSA. Kind of test: PSA secretion (ELISA) from LNCaP cells. Type of test: cell-based, human. The note with it: compound 1 μM; for androgen-induced PSA secretion: 10 nM R1881, 48 h; for PSA secretion when used alone: no R1881. Here is the method: It was done in culture medium using the PSA ELISA kit (Abnova-Taiwan Corporation, Taiwan), according to the manufacturer’s instructions. Released PSA was analyzed at 450 nm using the EnSpire Multimode Plate Reader (Perkin-Elmer, U.S.A.).
In general terms: In an ELISA, binding on a coated surface is turned into a signal by an enzyme label.

The next test has as its system PC3 cells. Kind of test: DNA synthesis (BrdU incorporation) in PC3 cells. The test is classed as cell-based. Particulars: cycling or androgen-stimulated (10 nM R1881) cells, compound 1 µM. Here is the method:
as §3

Test [4] relates to DU145 cells. Kind of test: Wound scratch assay in DU145 cells. The test is classed as cell-based. Particulars: cycling or quiescent cells, 10 nM R1881, compound 1 µM. As to the method:
as §1, §2

The test system of test [5] is DU-CaP cells. Nature of the test: DNA synthesis (BrdU incorporation) in DU-CaP cells. Type of test: cell-based, human. Particulars: 10 nM R1881, 18 h, compound 1 μM. Here is the method:
as §3

Test [6] has as its system DU-CaP cells. Nature of the test: Transmigration assay, DU-CaP cells. The test is classed as cell-based, human. Particulars: 10 nM R1881, compound 1 μM; compared with LNCaP. Here is the method: as §1, §2
For another test, the system named is LNCaP cells. Nature of the test: Wound scratch assay in LNCaP cells. Type of test: cell-based, human. The note with it: 10 nM R1881, 20 h, compound 1 μM. Here is the method: as §1, §2
Test [7] deals with DU145 cells. Nature of the test: DNA synthesis (BrdU incorporation) in DU145 cells. The test is classed as cell-based. The note with it: cycling or androgen-stimulated (10 nM R1881) cells, compound 1 µM. Here is the method: as §3

Regarding `c1ccc(COc2ccc3[nH]cc(CCNCc4ccc(Oc5ccccc5)cc4)c3c2)cc1` [Compound 4], in the test with ERK, RSK, the “androgen-triggered ERK and RSK activation” value is given as “inhibited”. Besides, the “ERK and RSK phosphorylation/activation when used alone” value in the test on ERK, RSK was “leaving unaffected”. Besides, the androgen-induced migration entry in the test on 22Rv1 cells [1] and in the test on DU-CaP cells [6] was “Superimposable results” throughout. Also, the androgen-induced invasion entry in the test with 22Rv1 cells [2] is given as “Superimposable results”. In addition, the “androgen-stimulated BrdU incorporation” value in the test with 22Rv1 cells [3] and with DU-CaP cells [5] was “significantly inhibited” each time. Besides, in the test on PSA, the “androgen-induced PSA secretion” value is “negligible inhibition”. Besides, the “PSA secretion when used alone” value in the test on PSA is given as “Neither the two TRPM8 antagonists, nor enzalutamide did modify such response”. Further, the BrdU incorporation result with PC3 cells and in the test with DU145 cells [7] was “did not affect” in each case. Further, the wound closure result with DU145 cells [4] was “did not modify”. The “wound-gap closure in androgen-treated cells” value with LNCaP cells is recorded as “stronger effect”.
On to `COC(=O)[C@H](Cc1c[nH]c2ccccc12)N(Cc1ccccc1)Cc1ccccc1` [Compound 6], for which the “androgen-triggered ERK and RSK activation” value with ERK, RSK is recorded as “inhibited”. In the test with ERK, RSK, the “ERK and RSK phosphorylation/activation when used alone” value is on record as “leaving unaffected”. Moreover, the androgen-induced migration entry in the test on 22Rv1 cells [1] and with DU-CaP cells [6] was “Superimposable results” throughout. In addition, the androgen-induced invasion result in the test on 22Rv1 cells [2] is recorded as “Superimposable results”. Further, the “androgen-stimulated BrdU incorporation” value with 22Rv1 cells [3] and in the test on DU-CaP cells [5] was “significantly inhibited” throughout. For the same compound, in the test with PSA, the “androgen-induced PSA secretion” value is listed as “negligible inhibition”. In the test with PSA, the “PSA secretion when used alone” value was “Neither the two TRPM8 antagonists, nor enzalutamide did modify such response”. The BrdU incorporation entry in the test with PC3 cells and with DU145 cells [7] was “did not affect” each time. The wound closure result in the test with DU145 cells [4] is listed as “did not modify”. The “wound-gap closure in androgen-treated cells” value with LNCaP cells is “stronger effect”.

Source of the values: article PMC8636514, “Therapeutic potential of TRPM8 antagonists in prostate cancer” (Scientific Reports, 2021).
